Reference: ChEMBL document CHEMBL1201862, “PubChem BioAssay data set” (2004)
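Following 48 hours of exposure in 96-well plates, responses at five concentrations were used to interpolate endpoints linearly. Abbreviation: GI50, concentration required for 50% inhibition of growth.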 Activity calls are given as the source filed them. Cut-off read from the data, not from the text of the source: active = GI50 up to about 1.1 µM and inactive = higher.

Tests used:
Assay in all cases: NCI anticancer screen, dose series, 48 h
T47D = test system: T47D
ACHN = test system: ACHN
NCI-H226 = test system: NCI-H226
SK-MEL-28 = test system: SK-MEL-28
NCI-H522 = test system: NCI-H522
HCC 2998 = test system: HCC 2998
RXF 393 = test system: RXF 393
U-251 = test system: U-251
MDA-MB-231 = test system: MDA-MB-231
COLO 205 = test system: COLO 205
NCI-H460 = test system: NCI-H460
MDA-MB-435 = test system: MDA-MB-435
EKVX = test system: EKVX
HOP-92 = test system: HOP-92
K562 = test system: K562
OVCAR-3 = test system: OVCAR-3
RPMI-8226 = test system: RPMI-8226
PC-3 = test system: PC-3
CCRF-CEM = test system: CCRF-CEM
DLD-1 = test system: DLD-1

Row | SMILES | GI50 (T47D) | GI50 (ACHN) | GI50 (NCI-H226) | GI50 (SK-MEL-28) | GI50 (NCI-H522) | GI50 (HCC 2998) | GI50 (RXF 393) | GI50 (U-251) | GI50 (MDA-MB-231) | GI50 (COLO 205) | GI50 (NCI-H460) | GI50 (MDA-MB-435) | GI50 (EKVX) | GI50 (HOP-92) | GI50 (K562) | GI50 (OVCAR-3) | GI50 (RPMI-8226) | GI50 (PC-3) | GI50 (CCRF-CEM) | GI50 (DLD-1)
1 | Cc1ccc(/N=N/C(=N\c2ccc(Cl)cc2)c2ccc(N(CCC#N)CCC#N)cc2)cc1 | 12.5 µM (inactive) | 42 µM (inactive) | > 100 µM (inactive) | 85.5 µM (inactive) | 19.4 µM (inactive) | 18.8 µM (inactive) | 36.8 µM (inactive) | 25.2 µM (inactive) | 25.8 µM (inactive) | 17.4 µM (inactive) | 18.1 µM (inactive) | 19.1 µM (inactive) | 22.9 µM (inactive) | 46.3 µM (inactive) | > 100 µM (inactive) | 33.4 µM (inactive) | > 100 µM (inactive) | 22.6 µM (inactive) | 21.6 µM (inactive) | –
2 | CC(C)(C)n1c(=O)n(C(=O)C(Cl)(Cl)Cl)n(C(=O)C(Cl)(Cl)Cl)c1=O | > 100 µM (inactive) | > 100 µM (inactive) | > 100 µM (inactive) | > 100 µM (inactive) | > 100 µM (inactive) | > 100 µM (inactive) | > 100 µM (inactive) | > 100 µM (inactive) | > 100 µM (inactive) | > 100 µM (inactive) | > 100 µM (inactive) | > 100 µM (inactive) | > 100 µM (inactive) | > 100 µM (inactive) | > 100 µM (inactive) | > 100 µM (inactive) | > 100 µM (inactive) | > 100 µM (inactive) | > 100 µM (inactive) | –
3 | CCP(=O)(OC)C1=CCN(C(=O)OCC[Si](C)(C)C)CC1 (stereo unspecified) | > 100 µM (inactive) | > 100 µM (inactive) | > 100 µM (inactive) | > 100 µM (inactive) | > 100 µM (inactive) | > 100 µM (inactive) | > 100 µM (inactive) | > 100 µM (inactive) | > 100 µM (inactive) | > 100 µM (inactive) | > 100 µM (inactive) | > 100 µM (inactive) | > 100 µM (inactive) | > 100 µM (inactive) | > 100 µM (inactive) | > 100 µM (inactive) | > 100 µM (inactive) | > 100 µM (inactive) | > 100 µM (inactive) | –
4 | CCOC(=O)/C=C(\C(=O)OCC)n1ccc(=O)n(Cc2cn(CCCCOC(C)=O)nn2)c1=O | 5.36 µM (inactive) | 5.33 µM (inactive) | 13.6 µM (inactive) | 8.17 µM (inactive) | 1.72 µM (inactive) | 21.6 µM (inactive) | 12 µM (inactive) | 16.1 µM (inactive) | 18.6 µM (inactive) | 2.89 µM (inactive) | 13.6 µM (inactive) | 5 µM (inactive) | 13 µM (inactive) | 2.55 µM (inactive) | 4.59 µM (inactive) | 12.7 µM (inactive) | 8.65 µM (inactive) | 17.1 µM (inactive) | 1.28 µM (inactive) | –
5 | COC(COC(=O)N1CCN(C=O)CC1)C1=C(N2CC2)C(=O)C(C)=C(N2CC2)C1=O (stereo unspecified) | 0.257 µM (active) | < 0.0193 µM (active) | 0.582 µM (active) | 1.27 µM (inactive) | 0.107 µM (active) | 21.2 µM (inactive) | 0.228 µM (active) | 0.219 µM (active) | 2.29 µM (inactive) | 0.272 µM (active) | < 0.0278 µM (active) | 0.424 µM (active) | 5.08 µM (inactive) | 0.198 µM (active) | 0.462 µM (active) | 0.656 µM (active) | 0.362 µM (active) | 0.461 µM (active) | 0.13 µM (active) | –
6 | COC(=O)c1csc([C@@H](OC(=O)[C@H](C)[C@H](CCCC(C)(Cl)Cl)OC(=O)c2csc([C@H](O)CO)n2)C(C)C)n1 | 20.7 µM (inactive) | 13.1 µM (inactive) | 19.2 µM (inactive) | 11.8 µM (inactive) | 16.8 µM (inactive) | 10.2 µM (inactive) | 1.89 µM (inactive) | 17.8 µM (inactive) | 17.6 µM (inactive) | 17.8 µM (inactive) | 9.89 µM (inactive) | 13.6 µM (inactive) | 17.1 µM (inactive) | 10.7 µM (inactive) | 16.4 µM (inactive) | 15 µM (inactive) | 15.2 µM (inactive) | 13.6 µM (inactive) | 17.2 µM (inactive) | –
7 | CC(C)=CC(=O)C/C(=N\NC(N)=S)C(=O)Nc1ccc(Cl)cc1 | – | > 100 µM (inactive) | > 100 µM (inactive) | > 100 µM (inactive) | – | > 100 µM (inactive) | > 100 µM (inactive) | > 100 µM (inactive) | – | > 100 µM (inactive) | > 100 µM (inactive) | – | > 100 µM (inactive) | – | > 100 µM (inactive) | > 100 µM (inactive) | > 100 µM (inactive) | – | > 100 µM (inactive) | > 100 µM (inactive)
8 | CC(C)(C)C(=O)/C=C/c1ccc(Oc2ccccc2)cc1 | – | 17.5 µM (inactive) | 19.6 µM (inactive) | 32 µM (inactive) | 11.2 µM (inactive) | 34.3 µM (inactive) | 27.4 µM (inactive) | 14.8 µM (inactive) | – | – | 19.2 µM (inactive) | – | 20 µM (inactive) | – | 7.03 µM (inactive) | – | 8.95 µM (inactive) | – | 10.4 µM (inactive) | 15 µM (inactive)
9 | CC(=O)n1cc(CC(C)O)c(=O)[nH]c1=O (stereo unspecified) | – | > 100 µM (inactive) | > 100 µM (inactive) | > 100 µM (inactive) | > 100 µM (inactive) | – | – | > 100 µM (inactive) | – | > 100 µM (inactive) | > 100 µM (inactive) | – | > 100 µM (inactive) | – | > 100 µM (inactive) | > 100 µM (inactive) | > 100 µM (inactive) | – | – | > 100 µM (inactive)
10 | CC1OC2/C=C\CC(O)C(C)(C)C3CCC(C)C4(O3)O[B-]35OC(C(=O)OC1C2)C1(OC(CCC1C)C(C)(C)C(O)C/C=C\C1CC(OC(=O)C4O3)C(C)O1)O5 (stereo unspecified) | 2.81 µM (inactive) | 3.45 µM (inactive) | 0.726 µM (active) | 1.77 µM (inactive) | 0.344 µM (active) | 1.66 µM (inactive) | 1.87 µM (inactive) | 1.33 µM (inactive) | 1.99 µM (inactive) | 2.03 µM (inactive) | 1.6 µM (inactive) | 2.54 µM (inactive) | 2.15 µM (inactive) | 2.94 µM (inactive) | 7.46 µM (inactive) | 1.89 µM (inactive) | 1.63 µM (inactive) | 2.77 µM (inactive) | 0.718 µM (active) | –
11 | O=c1ccc2cc(O)c(O)cc2o1 [ESCULETIN] | > 41.8 µM (inactive) | > 100 µM (inactive) | > 100 µM (inactive) | > 100 µM (inactive) | > 100 µM (inactive) | > 100 µM (inactive) | > 100 µM (inactive) | > 100 µM (inactive) | > 100 µM (inactive) | > 100 µM (inactive) | > 100 µM (inactive) | > 100 µM (inactive) | > 100 µM (inactive) | > 100 µM (inactive) | > 100 µM (inactive) | > 100 µM (inactive) | > 100 µM (inactive) | > 92.9 µM (inactive) | > 100 µM (inactive) | –
